Laboratory results: PubChem BioAssay (NCI)
Several values for one entry are separate records, joined by “and”; a condition that tells them apart may be missing. Equal entries are not always repeated.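 1) Cells in 96-well plates. 2) Compound, 48 h, 5 concentrations. 3) Linear interpolation between surrounding doses. 4) Unreached endpoint = highest concentration. GI50 = concentration required for 50% inhibition of growth. TGI: concentration producing complete growth inhibition.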

Tests used:
Assay in all cases: DTP human tumour cell line panel, 48 h
OVCAR-3 ovarian = test system: OVCAR-3 ovarian
M19-MEL melanoma = test system: M19-MEL melanoma
HOP-18 NSCLC = test system: HOP-18 NSCLC
SK-MEL-28 melanoma = test system: SK-MEL-28 melanoma
XF 498 CNS = test system: XF 498 CNS
T-47D breast = test system: T-47D breast
HS 578T breast = test system: HS 578T breast
BT-549 breast = test system: BT-549 breast
MDA-MB-435 = test system: MDA-MB-435
NCI/ADR-RES ovarian = test system: NCI/ADR-RES ovarian

SMILES	TGI (OVCAR-3 ovarian)	TGI (M19-MEL melanoma)	TGI (HOP-18 NSCLC)	TGI (SK-MEL-28 melanoma)	TGI (XF 498 CNS) [µM]	TGI (T-47D breast)	TGI (HS 578T breast)	TGI (BT-549 breast)	TGI (MDA-MB-435)	TGI (NCI/ADR-RES ovarian) [µM]	GI50 (OVCAR-3 ovarian) [µM]
COc1cc2c(cc1OC)C1C=NC(C(=O)O)(C2)c2ccccc21 (stereo not drawn)	> 100 µM	> 100 µM									
O=S(=O)(O)C(O)/C=C/c1ccccc1 (stereo not drawn)	> 100 µM	> 100 µM	> 100 µM	> 100 µM							
CN(C)CCNC(=O)c1cccc2nc3c(Cl)cccc3nc12	> 63.6 µM	13.1 µM	> 88 µM	15.9 µM	11.7						
Cc1cc(C)nc(NS(=O)(=O)c2ccc(NC(=O)c3cccc4c(=O)c5ccccc5[nH]c34)cc2)n1	37.6 µM		47.2 µM	36 µM	40.6						
C#CC(C)(C)Oc1cc(O)c2c(=O)c3ccccc3n(C)c2c1	> 100 µM		> 100 µM	> 100 µM	> 100						
COc1cc([C@@H]2c3cc4c(cc3[C@@H](NC(=O)c3cccc([N+](=O)[O-])c3)C3COC(=O)[C@@H]32)OCO4)cc(OC)c1O (stereo partly drawn)	27.9 µM	> 100 µM		> 43.8 µM							
O=C1Oc2cc3c(c4cccc1c24)OCN(c1ccc(Cl)cc1)C3	> 57.4 µM	> 57 µM	91.5 µM	> 93.6 µM	45.6						
COC(=O)c1c(OC)cccc1C(=O)O	> 100 µM	> 100 µM	> 100 µM								
O=C(O)c1cc(S(=O)(=O)N=NC=C2c3ccccc3N(O)c3ccccc32)ccc1O	> 100 µM	58.6 µM	85.4 µM	30.9 µM							
CN(C)c1ccc(/C=C2\C[N+](C)(C)C/C(=C\c3ccc(N(C)C)cc3)C2=O)cc1	17.2 µM	30.3 µM	> 100 µM	37.4 µM		46.6 µM	> 100 µM	34.3 µM	30 µM		
CCCCCCCCCCCCCCC1OC(=O)c2ccccc21 (stereo not drawn)	> 100 µM	> 100 µM	> 100 µM	> 100 µM							
Cc1nc2nnc(C)n2c2c1C(=O)Nc1ccccc1N2	> 100 µM	> 100 µM	> 100 µM	> 100 µM	> 100						
CC1CCC[P+](Cc2ccccc2)(c2ccccc2)CC1 (stereo not drawn)		> 100 µM	13 µM	> 100 µM	> 100						
O=c1[nH]c(=O)n(C2CC(O)C(CO)O2)cc1C#Cc1c(F)c(F)c(F)c(F)c1F (stereo not drawn)	> 100 µM	> 100 µM		> 100 µM							
CC1=CCCC(OC(N)=O)C1 (stereo not drawn)	> 100 µM	> 100 µM	> 100 µM		> 100						
CCC1CCC2CCCC(C)N12 (stereo not drawn)	> 100 µM	> 100 µM	> 100 µM	> 100 µM	> 100						
O=C1/C(=C/c2ccccc2)CN(C(=O)Oc2ccc(Cl)cc2)C/C1=C\c1ccccc1	10.6 µM	2.41 µM	36.6 µM	4.26 µM	5.71						
O=c1c(Cl)c(Cl)cnn1-c1ccccc1	4.22 µM and 3.94 µM	11.7 µM and 8.03 µM	22.8 µM and 21.9 µM	6.54 µM and 7.29 µM	5.47	16.4 µM and 5.04 µM	7.02 µM and 20.3 µM	3.12 µM and 3.19 µM	3.58 µM and 3.73 µM	3.97	
OCCNCO	> 100 µM	> 100 µM		> 100 µM	> 100						
COc1ccc(N=Cc2cc(OC)c(OC)c(OC)c2)cc1	> 100 µM	> 100 µM	> 100 µM	> 100 µM	> 100						> 100
O=C1CC[C@H]2CNC(=O)C[C@H]2C1	> 100 µM	> 100 µM		> 100 µM	> 100						
CC(=O)/C=C/c1cccc(N=S)c1	48.4 µM	18.3 µM	> 100 µM	44.6 µM	> 100						
c1ccc(-c2nnc(-c3nn(-c4ccccc4)c4nc5ccccc5nc34)o2)cc1	> 100 µM	> 100 µM	> 100 µM	> 100 µM	61						
O=C1NC(=O)C2C(=O)NC(=O)C1C2(c1ccccc1)c1ccc(Cl)cc1 (stereo not drawn)	> 100 µM	> 100 µM		> 100 µM	> 100						
C[Si](C)(C)c1ccc(CC2(Cc3ccc([Si](C)(C)C)cc3)CCNC2)cc1	3.93 µM	3.64 µM	9.12 µM	5.05 µM							
CCOC(=O)CCCO	> 100 µM		> 100 µM	> 100 µM	> 100						
